Assay results reported in patent publication US11180615B2, “Cationic polyphosphazene compound, polyphosphazenes-drug conjugate compound and method for preparing same” (CNPHARM CO., LTD., priority 2016, dated 2021).

What was measured:
[1] = tested on: SNU-638; test: In vitro cytotoxicity (SRB method), SNU-638; assay type: cell-based; conditions: SNU-638, mean ± SD, n = 3-4
Source text: (§1) Since the anticancer agent paclitaxel is well known to be clinically very efficacious against many different cancers, breast (MCF-7), ovarian (SK-OV3), non-small cell lung (A549) and stomach (SNU638) cancer cell lines were selected to test their in vitro cytotoxicity according to the literature method (SRB method) (Rita Song, et. al, J. Control. Release 105 (2005) 142-150).

[2] = tested on: A-549; test: In vitro cytotoxicity (SRB method), A-549; assay type: cell-based; conditions: A-549, mean ± SD, n = 3-4
Source text: as §1

[3] = tested on: MCF-7; test: In vitro cytotoxicity (SRB method), MCF-7; assay type: cell-based; conditions: MCF-7, mean ± SD, n = 3-4
Source text: as §1

[4] = tested on: SK-Ov3; test: In vitro cytotoxicity (SRB method), SK-Ov3; assay type: cell-based; conditions: SK-Ov3, mean ± SD, n = 3-4
Source text: as §1

[5] = tested on: gastric cancer cell line MKN-28; test: Nude mouse xenograft trial, MKN-28
Procedure: Both tumor size and body weight of each were measured from the beginning of first injection to 40 days.

[6] = tested on: non-small cell lung cancer cell line A549; conditions: versus Taxotere
[7] = Biodegradability in buffer at 37° C. followed by GPC; assay type: physicochemical; conditions: buffer pH 5.4, 37° C.
Procedure: Instrument: Yonglin GPC system
Column: Waters Hydrogel HR column (1×guard, 1×linear, 2×HR2)
Eluent: water/acetonitrile (8:2) (0.5% NaNO3)
Two sample solutions were prepared by dissolving the polyphosphazene-paclitaxel conjugate of Example 20 (250 mg) in a buffer solution (5 ml) at pH=5.4 and in another buffer solution (5 ml) at pH=7.4. The two sample solutions were slowly shaken at 37° C. in a water bath and 500 μl of the sample solution was taken at predetermined schedule (0.5, 1, 2, 4, 6, 8, 16 day after incubation) and freeze-dried. The dried samples were dissolved in tetrahydrofuran involving 0.2% t-butyl ammonium bromide and subjected to gel permeation chromatography (GPC).

[8] = Critical micelle concentration by pyrene fluorescence method; assay type: physicochemical; conditions: aqueous pyrene solution 6×10^−7 M
Procedure: As above-mentioned, the polyphosphazene-docetaxel conjugate of the present invention forms polymeric micelles in aqueous solution. In order for such polymer-drug conjugate to be clinically useful for IV injection, the solution stability of the micelles self-assembled from the polymer-drug conjugate is critical. Such a micelle stability is expressed as “critical micelle concentration (CMC),” which is measured by several methods, but the most widely used method is “pyrene fluorescence method” (K. Kalyanasundoram, et. al, J. Am. Chem. Soc. […], 99, 2039). According to the method the CMC value of the polyphosphazene-docetaxel conjugate of the present invention was measured as in the following:
An aqueous pyrene solution (6×10^−7 M) was prepared and using this solution a series of sample solutions of the polyphosphazene-paclitaxel conjugate of Example 20 was prepared in the concentration range of 5.0-0.0005% (w/w). Fluorescence spectra were measured at 339 nm (Iex) and 390 nm (Iem) and then from the ratio of the fluorescence intensities of band I and band III, the value of CMC was determined as shown in FIG. 4.

Molecule: [NP(MPEG550)1.50(GlyLysEt-2′-succinylpaclitaxel)0.50]n [Example 21]
- IC50 [1]: 5411 ± 46.6 nM
- IC50 [2]: 1540 ± 41.8 nM
- IC50 [3]: 317 ± 141 nM
- IC50 [4]: 6960 ± 142 nM

Molecule: CC(=O)O[C@H]1C(=O)[C@@]2(C)[C@H]([C@H](OC(=O)c3ccccc3)[C@]3(O)C[C@H](OC(=O)[C@H](O)[C@@H](NC(=O)c4ccccc4)c4ccccc4)C(C)=C1C3(C)C)[C@]1(OC(C)=O)CO[C@@H]1C[C@@H]2O [Paclitaxel, reference compound]
- IC50 ([1]; Homo sapiens): 10.9 ± 0.9 nM
- IC50 ([2]; Homo sapiens, A549): 6.63 ± 2.84 nM
- IC50 ([3]; Homo sapiens, MCF7): 3.47 ± 0.62 nM
- IC50 ([4]; Homo sapiens, SK-OV-3): 15.3 ± 2.6 nM

Molecule: [NP(MPEG550)1.5(LysEt-2′-aconitic-docetaxel)0.5]n [Example 14]
- antitumor activity against MKN-28 gastric tumor ([5]; 10 and 20 mg/kg as docetaxel, day 1, 5, 9, 40 days, versus Taxotere 10 mg/kg): strong antitumor activity equivalent to Taxotere
- systemic toxicity versus Taxotere ([5]; judged from body weight, MKN-28 xenograft mice): lower systemic toxicity
- antitumor activity against A549 tumor [6]: even better antitumor activity than the reference Taxotere

Molecule: [NP(MPEG550)1.50(LysEt)0.2(LysEt-2′-succinylpaclitaxel)0.3]n [Example 20]
- IC50 [1]: 364 ± 202 nM
- degradation of polyphosphazene backbone in acidic media [7]: continuously degradable in acidic media
- IC50 [2]: 170 ± 48.3 nM
- IC50 [3]: 165 ± 86.5 nM
- IC50 [4]: 588 ± 47.8 nM
- critical micelle concentration (CMC) [8]: 41 mg/L
